# Reference: patent publication US11253519B2, “Composition used to improve symptoms of autism spectrum disorder, and method using same for improving symptoms of autism spectrum disorder” (RENASCIENCE CO., LTD., priority 2016, dated 2022)
# Columns and labels:
# [1] = Vitamin B1 level in whole blood, serum pyridoxamine and pyridoxal levels and Wernicke's encephalopathy in two test subjects on pyridoxamine medication; format: in vivo, human
# [2] = Capture of serotonin by glyoxal, free serotonin by HPLC; format: biochemical; conditions: 2.5 mM serotonin + 25 mM glyoxal + 25 mM test compound, pH 7.4, room temperature, 2 hours; glyoxal alone about 40%
# Procedure: (§1) The reaction solutions are incubated at room temperature, and the amount of free serotonin or dopamine, which were not captured by glyoxal, in the reaction solutions was measured by HPLC.
# (§2) The negative control contained only 5-HT or DP with a buffer (GO and the test compounds were not added) (test samples 1 and 5), and the positive control contained 5-HT or DP and only GO (none of the test compounds was added) (test samples 2 and 6). […] After incubation, the reaction solutions were diluted 10-fold (pH 7.4) with a 0.25 M phosphate buffer, and analyzed by HPLC. The HPLC analysis was performed with instruments produced by Shimadzu Corporation (system controller: SCL-10A vp, auto injector: SIL-10A, degasser: DGU-12A, liquid chromatograph: LC-10AD vp, UV-Vis detector: SPD-10A vp, and column oven: CTO-10AC vp) under the conditions shown in Table 6. The data analysis was performed with Chromatopac C-R7A Plus.
# [3] = Capture of dopamine by glyoxal, free dopamine by HPLC; format: biochemical; conditions: 2.5 mM dopamine + 25 mM glyoxal + 25 mM test compound, pH 7.4, room temperature, 30 minutes; glyoxal alone about 30%
# Procedure: as §1, §2
# [4] = tested on: ASD patients; conditions: cited from earlier work
smiles,measurement,setting,value
"CC(=C(CCO)SSCC1CCCO1)N(C=O)Cc1cnc(C)nc1N (stereo in doubt) [Fursultiamine, fursultiamine, reference compound]",symptom of Wernicke's encephalopathy,"[1]; subject ID No. 3, 14 weeks after start (8 weeks after start of thiamine compound 75 mg/day oral)",disappeared
same,vitamin B1 level in whole blood,"[1]; subject ID No. 3, fursultiamine 75 mg/day oral for 6 weeks with continued pyridoxamine, 12 weeks after start, 28 ng/mL before thiamine",135 ng/mL
same,symptoms of Wernicke's encephalopathy,"[1]; subject ID No. 6, 11 weeks after start, on thiamine compound",disappeared
same,vitamin B1 level in whole blood,"[1]; subject ID No. 6, fursultiamine 300 mg/day intravenous, then 100 to 50 mg/day oral, with pyridoxamine, 11 weeks after start, 25 ng/mL before thiamine",150 ng/mL
Cc1ncc(CO)c(C=O)c1O [pyridoxal],amount of free serotonin relative to the negative control taken as 100%,[2],rather decreased
same,amount of free dopamine relative to the negative control taken as 100%,[3],no free dopamine became detectable
same,repetitive patterns of behavior of ASD patients,"[4]; 30 mg/kg/day, other research denies this efficacy (NPL 6)",effective
Cc1ncc(CO)c(CO)c1O [pyridoxine],"side effects (irritability, hyperactivity, sound sensitivity, enuresis)","[4]; children with ASD, NPL 8, NPL 9",may cause side effects to develop
same,verbal intelligence,"[4]; children with pervasive developmental disorder who have sensitivity to sound, NPL 7",improvement in verbal intelligence
same,intelligence quotient (IQ) scores,"[4]; children with pervasive developmental disorder, sensitive to sound, expressive language disorder, dyspraxia, high amount, NPL 2",increases in intelligence quotient (IQ) scores
